Results taken from US11306078B2, “Piperidine CXCR7 receptor modulators” (IDORSIA PHARMACEUTICALS LTD., priority 2016, dated 2022).

Target: human chemokine receptor CXCR7 (Homo sapiens (Human), UniProt P25106)
Assay: Tango CXCR7-bla U2OS beta-arrestin recruitment assay (beta-lactamase reporter, FRET), antagonism of CXCL12/SDF1-α;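 note: compounds preincubated 15 min before CXCL12 addition, then 22 h at 37 °C, FRET emission ratio read with CCF4-AM substrate after 2 h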
Format: cell-based
Details: antagonistic effect on CXCR7; Tango CXCR7-bla U2OS cells, CXCL12/SDF1-α at its EC80

Sequence of human chemokine receptor CXCR7 (P25106 whole entry): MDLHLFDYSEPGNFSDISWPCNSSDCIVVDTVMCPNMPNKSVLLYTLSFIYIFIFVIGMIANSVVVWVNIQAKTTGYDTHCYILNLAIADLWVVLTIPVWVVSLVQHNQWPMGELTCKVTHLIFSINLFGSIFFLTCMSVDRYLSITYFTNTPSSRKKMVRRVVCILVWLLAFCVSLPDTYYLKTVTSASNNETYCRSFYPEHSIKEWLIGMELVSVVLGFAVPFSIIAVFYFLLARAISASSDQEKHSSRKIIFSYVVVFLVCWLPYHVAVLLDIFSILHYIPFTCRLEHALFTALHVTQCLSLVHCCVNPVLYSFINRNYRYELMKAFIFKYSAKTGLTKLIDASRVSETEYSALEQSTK

Question: CN(C)C(=O)[C@@H]1CN(C2CCCCC2)CC[C@H]1NC(=O)c1cc(-c2c(F)cccc2F)on1 (racemic) [Example 3.001, rac-(3R*,4R*)-1-Cyclohexyl-4-{[5-(2,6-difluoro-phenyl)-isoxazole-3-carbonyl]-amino}-piperidine-3-carboxylic acid dimethylamide] was tested. Which IC50 did it give?
Answer: The IC50 was 965 nM.

Question: For CN(C)C(=O)[C@@H]1CN(C2CCCCC2)CC[C@H]1NC(=O)c1cc(-c2ccc(F)cc2)on1 (racemic) [Example 3.002, rac-(3R*,4R*)-1-Cyclohexyl-4-{[5-(4-fluoro-phenyl)-isoxazole-3-carbonyl]-amino}-piperidine-3-carboxylic acid dimethylamide], which IC50 is on record?
Answer: Its IC50 is 435 nM.

Question: How did the IC50 turn out when CN(C)C(=O)[C@@H]1CN(C2CCCCC2)CC[C@H]1NC(=O)c1nnc(-c2ccc(F)cc2F)o1 (racemic) [Example 3.003, rac-(3R*,4R*)-1-Cyclohexyl-4-{[5-(2,4-difluoro-phenyl)-[1,3,4]oxadiazole-2-carbonyl]-amino}-piperidine-3-carboxylic acid dimethylamide] was run?
Answer: Its IC50 is 105 nM.

Question: With CN(C)C(=O)[C@@H]1CN(C2CCCCC2)CC[C@H]1NC(=O)c1cc(-c2ccc(F)cc2Cl)on1 (racemic) [Example 3.004, rac-(3R*,4R*)-4-{[5-(2-Chloro-4-fluoro-phenyl)-isoxazole-3-carbonyl]-amino}-1-cyclohexyl-piperidine-3-carboxylic acid dimethylamide] as the compound, how does the IC50 read?
Answer: Its IC50 is 338 nM.

Question: Which IC50 does the source give for CN(C)C(=O)[C@@H]1CN(C2CCCCC2)CC[C@H]1NC(=O)c1cc(-c2c(F)cc(F)cc2F)on1 (racemic) [Example 3.005, rac-(3R*,4R*)-1-Cyclohexyl-4-{[5-(2,4,6-trifluoro-phenyl)-isoxazole-3-carbonyl]-amino}-piperidine-3-carboxylic acid dimethylamide] here?
Answer: Its IC50 is 38 nM.

Question: With CN(C)C(=O)[C@@H]1CN(C2CCCCC2)CC[C@H]1NC(=O)c1cc(-c2ccc(Cl)cc2F)on1 (racemic) [Example 3.006, rac-(3R*,4R*)-4-{[5-(4-Chloro-2-fluoro-phenyl)-isoxazole-3-carbonyl]-amino}-1-cyclohexyl-piperidine-3-carboxylic acid dimethylamide] as the compound, how does the IC50 read?
Answer: Its IC50 is 108 nM.

Question: For CN(C)C(=O)[C@@H]1CN(C2CCCCC2)CC[C@H]1NC(=O)c1noc(-c2ccc(F)cc2F)n1 (racemic) [Example 3.007, rac-(3R*,4R*)-1-Cyclohexyl-4-{[5-(2-difluoro-phenyl)-[1,2,4]oxadiazole-3-carbonyl]-amino}-piperidine-3-carboxylic acid dimethylamide], which IC50 is on record?
Answer: Its IC50 is 162 nM.

Question: How did the IC50 turn out when O=C(N[C@@H]1CCN(C2CCCCC2)C[C@H]1C(=O)NC1(c2ccccn2)CC1)c1cc(-c2ccccc2F)on1 (racemic) [Example 3.009, rac-(3R*,4R*)-1-Cyclohexyl-4-{[5-(2-fluoro-phenyl)-isoxazole-3-carbonyl]amino}-piperidine-3-carboxylic acid (1-pyridin-2-yl-cyclopropyl)-amide] was run?
Answer: Its IC50 is 286 nM.

Question: How did the IC50 turn out when O=C(N[C@@H]1CCN(C2CCCCC2)C[C@H]1C(=O)NC1(c2ccccn2)CC1)c1nnc(-c2ccc(F)cc2F)o1 (racemic) [Example 3.012, rac-(3R*,4R*)-1-Cyclohexyl-4-{[5-(2,4-difluoro-phenyl)-[1,3,4]oxadiazole-2-carbonyl]-amino}-piperidine-3-carboxylic acid (1-pyridin-2-yl-cyclopropyl)-amide] was run?
Answer: Its IC50 is 26 nM.

Question: O=C(N[C@@H]1CCN(CC2CC2)C[C@H]1C(=O)NC1(c2ccccn2)CC1)c1cc(-c2ccccc2F)on1 (racemic) [Example 3.013, rac-(3R*,4R*)-1-Cyclopropylmethyl-4-{[5-(2-fluoro-phenyl)-isoxazole-3-carbonyl]-amino}-piperidine-3-carboxylic acid (1-pyridin-2-yl-cyclopropyl)-amide] was tested. Which IC50 did it give?
Answer: Its IC50 is 153 nM.

Question: O=C(N[C@@H]1CCN(CC2CC2)C[C@H]1C(=O)NC1(c2ccccn2)CC1)c1cc(-c2ccc(F)cc2)on1 (racemic) [Example 3.014, rac-(3R*,4R*)-1-Cyclopropylmethyl-4-{[5-(4-fluoro-phenyl)-isoxazole-3-carbonyl]-amino}-piperidine-3-carboxylic acid (1-pyridin-2-yl-cyclopropyl)-amide] was tested. Which IC50 did it give?
Answer: Its IC50 is 158 nM.

Question: Which IC50 does the source give for O=C(N[C@@H]1CCN(CC2CC2)C[C@H]1C(=O)NC1(c2ccccn2)CC1)c1ncc(-c2ccc(F)cc2F)o1 (racemic) [Example 3.015, rac-(3R*,4R*)-1-Cyclopropylmethyl-4-{[5-(2,4-difluoro-phenyl)-oxazole-2-carbonyl]-amino}-piperidine-3-carboxylic acid (1-pyridin-2-yl-cyclopropyl)-amide] here?
Answer: Its IC50 is 170 nM.

Question: Which IC50 does the source give for O=C(N[C@@H]1CCN(CC2CC2)C[C@H]1C(=O)NC1(c2ccccn2)CC1)c1nnc(-c2ccc(F)cc2F)o1 (racemic) [Example 3.016, rac-(3R*,4R*)-1-Cyclopropylmethyl-4-{[5-(2,4-difluoro-phenyl)-[1,3,4]oxadiazole-2-carbonyl]-amino}-piperidine-3-carboxylic acid (1-pyridin-2-yl-cyclopropyl)-amide] here?
Answer: The IC50 was 105 nM.

Question: CN(C)C(=O)[C@@H]1CN(C2CCCC2)CC[C@H]1NC(=O)c1ncc(-c2ccc(F)cc2F)o1 (racemic) [Example 3.017, rac-(3R*,4R*)-1-Cyclopentyl-4-{[5-(2,4-difluoro-phenyl)-oxazole-2-carbonyl]-amino}-piperidine-3-carboxylic acid dimethylamide] was tested. Which IC50 did it give?
Answer: The IC50 was 661 nM.

Question: For CN(C)C(=O)[C@@H]1CN(C2CCCCC2)CC[C@H]1NC(=O)c1ncc(-c2ccc(F)cc2F)o1 (racemic) [Example 3.018, rac-(3R*,4R*)-1-Cyclohexyl-4-{[5-(2,4-difluoro-phenyl)-oxazole-2-carbonyl]-amino}-piperidine-3-carboxylic acid dimethylamide], which IC50 is on record?
Answer: Its IC50 is 198 nM.

Question: With CN(C)C(=O)[C@@H]1CN(C2CCCCC2)CC[C@H]1NC(=O)c1nc(-c2ccc(F)cc2F)no1 (racemic) [Example 3.019, rac-(3R*,4R*)-1-Cyclohexyl-4-{[3-(2,4-difluoro-phenyl)-[1,2,4]oxadiazole-5-carbonyl]-amino}-piperidine-3-carboxylic acid dimethylamide] as the compound, how does the IC50 read?
Answer: The IC50 was 778 nM.

Question: O=C(N[C@@H]1CCN(CC2CC2)C[C@H]1C(=O)NC1(c2ncccn2)CC1)c1noc(-c2ccc(F)cc2)c1F (racemic) [Example 3.021, rac-(3R*,4R*)-1-Cyclopropylmethyl-4-{[4-fluoro-5-(4-fluoro-phenyl)-isoxazole-3-carbonyl]-amino}-piperidine-3-carboxylic acid (1-pyrimidin-2-yl-cyclopropyl)-amide] was tested. Which IC50 did it give?
Answer: Its IC50 is 40 nM.

Question: For O=C(N[C@@H]1CCN(CC2CC2)C[C@H]1C(=O)NC1(c2ncccn2)CC1)c1noc(-c2ccc(F)cc2F)c1F (racemic) [Example 3.022, rac-(3R*,4R*)-1-Cyclopropylmethyl-4-{[5-(2,4-difluoro-phenyl)-4-fluoro-isoxazole-3-carbonyl]-amino}-piperidine-3-carboxylic acid (1-pyrimidin-2-yl-cyclopropyl)-amide], which IC50 is on record?
Answer: The IC50 was 28 nM.

Question: With CN(C)C(=O)[C@]1(C)CN(C2CCCCC2)CC[C@H]1NC(=O)c1cc(-c2ccc(F)cc2F)on1 (racemic) [Example 5.002, rac-(3R*,4R*)-1-Cyclohexyl-4-{[5-(2,4-difluoro-phenyl)-isoxazole-3-carbonyl]-amino}-3-methyl-piperidine-3-carboxylic Acid Dimethylamide] as the compound, how does the IC50 read?
Answer: Its IC50 is 857 nM.

Question: Which IC50 does the source give for O=C(N[C@@H]1CCN(C2CCCCC2)C[C@H]1C(=O)N1CCC(O)C1)c1cc(-c2ccc(F)cc2F)on1 (relative stereo) [Example 1.028, 5-(2,4-Difluoro-phenyl)-isoxazole-3-carboxylic acid [(3R*,4R*)-1-cyclohexyl-3-((3RS)-3-hydroxy-pyrrolidine-1-carbonyl)-piperidin-4-yl]-amide] here?
Answer: Its IC50 is 916 nM.

Question: With O=C(N[C@@H]1CCN(C2CCCCC2)C[C@H]1C(=O)NCC1CCCO1)c1cc(-c2ccc(F)cc2F)on1 (relative stereo) [Example 1.044, (3R*,4R*)-1-Cyclohexyl-4-{[5-(2,4-difluoro-phenyl)-isoxazole-3-carbonyl]-amino}-piperidine-3-carboxylic acid ((2RS)-tetrahydro-furan-2-ylmethyl)-amide] as the compound, how does the IC50 read?
Answer: Its IC50 is 556 nM.

Question: Which IC50 does the source give for CC(NC(=O)[C@@H]1CN(C2CCCCC2)CC[C@H]1NC(=O)c1cc(-c2ccc(F)cc2F)on1)c1ccncn1 (relative stereo) [Example 1.063, (3R*,4R*)-1-Cyclohexyl-4-{[5-(2,4-difluoro-phenyl)-isoxazole-3-carbonyl]-amino}-piperidine-3-carboxylic acid ((1RS)-1-(pyrimidin-4-yl)-ethyl)-amide] here?
Answer: The IC50 was 107 nM.

Question: How did the IC50 turn out when O=C(N[C@@H]1CCN(C2CCCCC2)C[C@H]1C(=O)NC(c1ccccn1)C(F)(F)F)c1cc(-c2ccc(F)cc2F)on1 (relative stereo) [Example 1.069, (3R*,4R*)-1-Cyclohexyl-4-{[5-(2,4-difluoro-phenyl)-isoxazole-3-carbonyl]-amino}-piperidine-3-carboxylic acid ((1RS)-2,2,2-trifluoro-1-pyridin-2-yl-ethyl)-amide] was run?
Answer: The IC50 was 556 nM.

Question: Which IC50 does the source give for O=C(N[C@@H]1CCN(C2CCCCC2)C[C@H]1C(=O)NC[C@H](O)c1ccccc1)c1cc(-c2ccc(F)cc2F)on1 (relative stereo) [Example 1.072, (3R*,4R*)-1-Cyclohexyl-4-{[5-(2,4-difluoro-phenyl)-isoxazole-3-carbonyl]-amino}-piperidine-3-carboxylic acid ((R)-2-hydroxy-2-phenyl-ethyl)-amide] here?
Answer: Its IC50 is 32 nM.

Question: How did the IC50 turn out when O=C(N[C@@H]1CCN(C2CCCCC2)C[C@H]1C(=O)NC[C@@H](O)c1ccccc1)c1cc(-c2ccc(F)cc2F)on1 (relative stereo) [Example 1.073, (3R*,4R*)-1-Cyclohexyl-4-{[5-(2,4-difluoro-phenyl)-isoxazole-3-carbonyl]-amino}-piperidine-3-carboxylic acid ((S)-2-hydroxy-2-phenyl-ethyl)-amide] was run?
Answer: Its IC50 is 118 nM.

Question: With CC(CO)NC(=O)[C@@H]1CN(C2CCCCC2)CC[C@H]1NC(=O)c1cc(-c2ccc(F)cc2F)on1 (relative stereo) [Example 1.076, (3R*,4R*)-1-Cyclohexyl-4-{[5-(2,4-difluoro-phenyl)-isoxazole-3-carbonyl]-amino}-piperidine-3-carboxylic acid ((1RS)-2-hydroxy-1-methyl-ethyl)-amide] as the compound, how does the IC50 read?
Answer: Its IC50 is 604 nM.
